Source: patent US20150148387A1, “METHODS OF TREATMENT, DIAGNOSIS AND […] METHA[…] WHICH TARGET CERAMIDE METABOLIC […] AND […] SENESCENCE” (priority 2012, published 2015)
Entries after “also recorded” stand apart in the source; their conditions may differ. Structures can show the parent of a compound that is named as a salt. Where two headings read alike, the source gives them in different places.

Assays:
[1] = system: primary mouse embryonic fibroblasts (MEF); assay type: cell-based; conditions: for SA-β-gal expression induced by methamphetamine: methamphetamine 1 mM; for amphetamine-induced inflammation and senescence: measured by beta-galactosidase assay, crystal violet morphology, and gene expression of pro-inflammatory and pro-senescence genes
Description: Detection of senescence-associated β-galactosidase staining was performed as previously reported. Briefly, we plated MEFs on Lab-Tek chamber slides at a density of 5×10^4 cells per chamber. Next day, cells were treated with the indicated dose of drug for 48 hours. Cells were washed twice with PBS and fixed in 2% formaldehyde/0.2% glutaraldehyde for five minutes at room temperature. After two PBS washes the slides were incubated with fresh β-galactosidase stain solution (1 mg/mL 5-bromo-4-chloro-3-indoyl β-D-galactoside (X-Gal) 40 mM sodium phosphate, pH 6.0, 5 mM potassium ferrocyanide, 5 mM potassium ferricyanide, 150 mM NaCl, and 2 mM MgCl2) at 37° C. for 12-16 hours. Slides were washed with PBS and mounted with DAPI containing media. Images were taken for the β-gal staining and overlapped with fluorescent images taken of the same region to count the number of cells staining positive for β-gal (Nikon Eclipse E600). More than 200 cells from 5 different regions of a slide were counted in a blind fashion.

[2] = system: primary mouse embryonic fibroblasts (MEF); assay type: cell-based; conditions: for ceramide (d18:1/16:0) content: incubation of MEF with the drug alone
Description: (§1) Cells were washed with ice-cold phosphate-buffered saline (PBS) and scraped into 0.5 ml of methanol/water (1:1, vol:vol) containing the internal standards listed below. Protein concentrations were measured using the BCA protein assay (Pierce, Rockford, Ill., USA). Lipids were extracted with chloroform/methanol (2:1, vol:vol; 1.0 mL). The organic phases were collected, dried under nitrogen and dissolved in methanol for LC/MS analyses.
(§2) Helium was used as collision gas. […] Mobile phase composition was as described above.
(§3) Mouse embryonic fibroblasts (MEFs) were prepared from mice embryo as previously reported. Briefly, pregnant mice at day 13 post coitum were sacrificed and the uteri were dissected out. Each embryo was separated from the placenta and the head and visceral tissues were removed. The remaining body was minced in PBS and incubated with 0.1 mM trypsin/1 mM EDTA at 37° C. for 15 min. Two volumes of Dulbecco's Modified Eagle Medium (DMEM) containing 10% fetal bovine serum (FBS) was added and stood for 5 minutes to settle down large pieces of unbroken tissues. The supernatant was then removed and centrifuged at 200×g for 5 min and suspended in fresh DMEM containing 10% FBS. Cells were cultured at 37° C. with 5% CO2.

[3] = Methamphetamine self-administration in rats: self-administration, body weight, body temperature, food intake; assay type: in vivo, rat
Description: Each experimental group was divided into two subgroups that were tested simultaneously. One subgroup served as yoked controls and passively received an injection of saline (which was not contingent on responding) each time a response-contingent injection of 0.1 mg/kg methamphetamine was actively self-administered by the first subgroup of rats. […] The first experimental groups consisted of 12 rats self-administering methamphetamine and 6 yoked control rats. The second experimental group consisted of 9 rats self-administering methamphetamine and 9 yoked control rats. The third experimental group consisted of 16 rats self-administering methamphetamine and 8 yoked control rats. […] The pretreatment with L-CS was always given immediately before and after each session and the catheter was flushed with 0.5 ml of saline afterwards. Before and after sessions 4 and 5 animals received dose 10 mg/kg of L-CS and before and after sessions 6, 7, and 8 they received dose 20 mg/kg of L-CS. The animals received total dose 160 mg/kg of L-CS during the experiment. In this group, we also measured three times the rectal temperature. The first measurement was done one the day before the experiment began at 2 pm, the second measurement was done at 2 pm before the eighth session, and the third measurement immediately after the eighth session.
Eight consecutive 15-hour sessions were conducted between 4 p.m. and 8 a.m. Rats and the food in the feeders were weighed before the start of each session. At the start of each session, a white house light was turned on and a priming injection of 0.1 mg/kg methamphetamine (or saline for yoked group), sufficient to fill the “dead” space of the IV catheter, was automatically delivered. Rats learned to self-administer methamphetamine under one-response, fixed ratio schedule (FRI) of i.v. methamphetamine injection with 30-s time-out duration. Each nose-poke response in the active hole (FRI) produced a delivery of an i.v. injection of 0.1 mg/kg of methamphetamine followed by 30-s timeout period, during which the chamber was dark and responses in either hole had no programmed consequences.

[4] = system: isolated mitochondria from primary MEF; assay: Lipid analysis of isolated mitochondria from MEF; assay type: cell-based, mouse
Description: as §1, §2, §3

[5] = system: primary mouse embryonic fibroblasts (MEF); assay: Gene expression in MEF; assay type: cell-based
Description: Total RNA was extracted from frozen tissues using TRIzol reagent (Invitrogen, Carlsbad, Calif.) and was purified with the RNeasy mini kit (Qiagen, Valencia, Calif.). First-strand complementary DNAs were synthesized using SuperScript II RNaseH reverse transcriptase (Invitrogen). Reverse transcription of total RNA (2 μg) was carried out using oligo(dT)12-18 primers for 50 min at 42° C. mRNA levels were measured by quantitative real-time polymerase chain reaction (RT-PCR) with a Mx 3000P system (Stratagene, La Jolla, Calif.). The following list of primers and fluorogenic probes purchased from Applied Biosystems (TaqMan Gene Expression Assays, Foster City, Calif.): Ceramide Synthase 1 (Rn01420081_m1), Ceramide Synthase 2 (Rn01762789_m1), Ceramide Synthase 4 (Rn01767402_m1), Ceramide Synthase 5 (Rn01532864_m1), Ceramide Synthase 6 (Rn01270930_m1), Interleukin-6 (Rn01410330_m1). mRNA levels were normalized using beta actin, 18S ribosomal protein or glyceraldehyde-3-phosphate dehydrogenase as internal standards. Additional PCR primers were designed using Primer 3 (https://www.Frodo.wit.mit.edu), and the sequences are shown in S.Table XXX.
as §3

[6] = system: ceramide content and IL-6 and p21 mRNA; assay: Acute experiment in mice: methamphetamine alone or in combination with L-CS
[7] = system: de novo ceramide biosynthesis; assay: Methamphetamine self-administration in rats: lipidomic analysis of tissues by LC/MS
Description: Male Sprague-Dawley rats (Charles River, Wilmington, Mass.), weighing approximately 360-440 g at the beginning of the self-administration experiment, were individually housed in a temperature- and humidity-controlled environment under a reversed lighting 12-h light/dark cycle (lights on at 7:00 p.m.). The rats were allowed free access to food (NIH07 biscuits) in their home cage throughout the study. Water was available ad libitum in the home cage and in the testing chamber. Rats were tested in the light phase. They were experimentally and drug naïve at the beginning of this study.
Each of eighteen standard operant-conditioning chambers (Coulbourn Instruments, Lehigh Valley, Pa.) contained a white house light and two holes with nose-poke operanda on either side of a food trough. Upon activation, each nose poke produced a brief feedback tone. […] The tubing was attached to a syringe pump (Harvard Apparatus, South Natick, Mass.), which was programmed to deliver 2-s injections. The injected volume was adjusted for every animal to deliver a methamphetamine dose of 0.1 mg/kg/injection. Experimental events were controlled by microcomputers using MED Associates interfaces and software (Med Associates Inc., East Fairfield, Vt.).
Silastic catheter was implanted into the external jugular vein under anesthesia with a mixture of ketamine and xylazine (60 and 10 mg/kg i.p., respectively). Catheter exited the skin behind the ear. After catheter implantation, a nylon bolt glued to an acrylic mesh was implanted subcutaneously in the midscapular region. The nylon bolt served as a tether, preventing the catheter from being pulled out during self-administration sessions. Following surgery, the IV catheter was flushed daily during the first week with 0.2-0.3 ml of solution containing cephalosporin (100 mg/ml; Cefazolin For Injection, USP; Hospira Inc., Lake Forest, Ill., USA) and then flushed before and after each daily session with saline to maintain its patency) and then flushed after each daily session with saline to maintain its patency.
Each experimental group was divided into two subgroups that were tested simultaneously. One subgroup served as yoked controls and passively received an injection of saline (which was not contingent on responding) each time a response-contingent injection of 0.1 mg/kg methamphetamine was actively self-administered by the first subgroup of rats. […] The first experimental groups consisted of 12 rats self-administering methamphetamine and 6 yoked control rats. The second experimental group consisted of 9 rats self-administering methamphetamine and 9 yoked control rats. The third experimental group consisted of 16 rats self-administering methamphetamine and 8 yoked control rats. […] The pretreatment with L-CS was always given immediately before and after each session and the catheter was flushed with 0.5 ml of saline afterwards. Before and after sessions 4 and 5 animals received dose 10 mg/kg of L-CS and before and after sessions 6, 7, and 8 they received dose 20 mg/kg of L-CS. The animals received total dose 160 mg/kg of L-CS during the experiment.
Eight consecutive 15-hour sessions were conducted between 4 p.m. and 8 a.m. Rats and the food in the feeders were weighed before the start of each session. At the start of each session, a white house light was turned on and a priming injection of 0.1 mg/kg methamphetamine (or saline for yoked group), sufficient to fill the “dead” space of the IV catheter, was automatically delivered. Rats learned to self-administer methamphetamine under one-response, fixed ratio schedule (FRI) of i.v. methamphetamine injection with 30-s time-out duration.

[8] = system: primary mouse embryonic fibroblasts (MEF); assay: ROS production in MEF (CM-H2DCFDA); assay type: cell-based; conditions: CYP inhibitors with methamphetamine
Description: Production of ROS was measured using the fluorescent probe CM-H2DCFDA (Invitrogen). This carboxy derivative of fluorescein carries additional negative charges that improve its retention compared to noncarboxylated forms. For these experiments, MEFs were grown in DMEM without phenol red, for which anti-oxidative properties have been reported. Cells were plated to subconfluence in 12-well plates, washed 3 times with pre-warmed PBS and loaded for 30 min at 37° C./5% CO2 with […] CM-H2DCFDA in DMEM without phenol red (loading medium). Then the loading medium was removed and pre-warmed fresh medium containing the different CYP450 inhibitors in presence or absence of methamphetamine was added. Fluorescence (excitation at 485 nm, emission at 530 nm) was analyzed immediately, cells were incubated at 37° C./5% CO2, and fluorescence was analyzed at the indicated time points. ROS rate versus control (%) was calculated subtracting the percentage of ROS increasing from time zero in the methamphetamine-treated samples to the percentage of ROS increasing from time zero in vehicle-treated samples.

[9] = system: ceramide synthase (CerS); assay: Methamphetamine self-administration in rats: ceramide synthase activity in tissue; assay type: in vivo, rat; conditions: self-administering rats; data not shown
Description: (§4) Fresh rat tissues were collected in 1 ml of homogenization buffer (25 mM HEPES, pH 7.4, containing 5 mM EGTA, 50 mM NaF, and complete mini EDTA-free protease inhibitor). Tissues were disrupted using pulse homogenizer, and centrifuged at 800×g for 5 min. The postnuclear supernatant was centrifuged at 250,000×g for 30 min at 4° C. in ultracentrifuge. The microsomal membrane pellet was resuspended in 250-500 μl of homogenization buffer. Protein concentration was measured using the BCA protein assay (Pierce, Rockford, Ill.).
(§5) Ceramide synthase activity was measured at 37° C. for 1 hr in HEPES buffer (20 mM, pH 7.4) containing 2 mM MgCl2, fatty acid-free bovine serum albumin (20 μmol) membrane proteins (0.05-0.1 mg), using dihydrosphingosine (sphinganine d17:0, 20 μmol) and palmitoyl-coenzyme A (70 μmol) as substrates. The reactions were stopped by adding chloroform-methanol (2:1, v/v) containing C12:0 ceramide (d18:1/12:0) as an internal standard. Lipid extracts were dried under nitrogen and reconstituted in chloroform-methanol (1:3, v/v; 0.1 ml) for LC-MS analyses. Products of reaction were measured using an Agilent 1100-LC system coupled to ion-trap XCT and interfaced with ESI (Agilent Technologies). […] For quantification purposes, we monitored the ions at m/z 526.5>508.5 for C17:0 dihydroceramide (d17:0/16:0) and m/z 482.5>464.5>264.3 for C12:0 ceramide (d18:1/12:0).

[10] = system: ceramide synthase (CerS); assay: Acute methamphetamine administration in rats: ceramide synthase activity; assay type: in vivo, rat; conditions: non-contingent methamphetamine administration; data not shown
Description: Three groups of rats were used for these experiments. […] Other details are the same as for group 1.
as §4
as §5, with “Lipid extracts were dried under nitrogen and reconstituted in chloroform-methanol (1:3, v/v; 0.1 ml) for LC-MS analyses.” left out

[11] = system: primary mouse embryonic fibroblasts (MEF); assay: Crystal violet staining, cell morphology; assay type: cell-based; conditions: 48 h, 1 mM, passage 2
Description: To study cell morphology, cells were plated and treated in 6-well plates. After fixation, with 4% paraformaldehyde cells were stained with crystal violet (0.5% crystal violet in methanol:PBS, 1:1, v/v). After thorough wash in tap water, images were taken using a Westover Scientific Series 8 microscope.

[12] = system: primary mouse embryonic fibroblasts (MEF); assay: Population doubling; assay type: cell-based; conditions: 1 mM; compared to control cells
Description: We plated 1×10^6 cells on a 60 mm dishes and treated them with 1 mM methamphetamine. Cells were trypsinized and re-plated at the same density (1×10^6 cells/dish) every 3 days for 6 passages. Population doublings were calculated according to the formula log (final cell number/plated cell number/log 2).

[13] = system: primary mouse embryonic fibroblasts (MEF); assay: DNA replication assay ([3H]thymidine); conditions: 48 h, 1 mM
[14] = system: de novo ceramide biosynthesis; assay: Acute methamphetamine administration in rats: tissue lipid levels
Description: Forty-six male Sprague-Dawley rats (Charles River, Wilmington, Mass.), weighing approximately 360-420 g were used in these experiments.
Three groups of rats were used for these experiments. Group 1: On the day of the experiment, rats received two i.p. injections of methamphetamine, 10 mg/kg (n=6), or saline (n=6) every 2 h. Two hours after the last administration of methamphetamine or saline, rats were euthanized by decapitation. Brain, liver, kidney (left), heart, skin (hind paw), skeletal muscle (vastus lateralis muscle) were harvested. Brains and livers were snap-frozen in isopentane and other tissues were snap-frozen in liquid nitrogen and stored at −80° C. Group 2: On the day of the experiment, rats received two i.p. injections of methamphetamine, 1.5 mg/kg (n=6), or saline (n=6) every 2 h. Other details are the same as for group 1. Group 3: On the day of the experiment, five rats received two i.p. injections of 1.5 mg/kg methamphetamine every 2 h; five rats received two i.p. injections of 5 mg/kg methamphetamine every 2 h; six rats received two i.p. injections of 10 mg/kg D-methamphetamine every 2 h, and six rats received two i.p. injections of saline every 2 h. Two hours after the last injection, blood was collected by cardiac puncture under isoflurane anesthesia and immediately afterwards brain, skeletal muscle and skin were harvested and handled as described for group 1.
Briefly, frozen brain samples were weighed and homogenized in cold methanol containing appropriate internal standards (listed below). Lipids were extracted by adding chloroform and water (2/1, vol/vol) and fractionated through open-bed silica gel columns by progressive elution with chloroform/methanol mixtures. Fractions eluted from the columns were dried under nitrogen, reconstituted in chloroform/methanol (1:4, vol/vol; 0.1 ml) and subjected to LC/MS.
Sphingolipid molecular species were analyzed by tandem mass spectrometry, using an Agilent 1100 liquid chromatography coupled to an ESI-ion-trap XCT mass detector. Dihydroceramides and ceramides were separated on a Poroshell 300 SB C18 column (2.1×75 mm i.d., 5 μm; Agilent Technologies) maintained at 30° C. […] Extracted ion chromatograms were used to quantify the following ceramides: d18:1/16:0 [M+H]^+ (m/z=538.5>520.5>264.3), d18:0/16:0 [M+H]^+ (m/z=540.5>522.5), d18:1/18:0 [M+H]^+ (m/z=566.5>548.5>264.3), d18:0/18:0 [M+H]^+ (m/z=568.5>550.5), d18:1/24:0 [M+H]^+ (m/z=650.6>632.8>2643), d18:0/24:0 [M+H]^+ (m/z=652.6>634.8), d18:1/24:1 [M+H]^+ (m/z=648.6>630.8>264.3), d18:0/24:1 [M+H]^+ (m/z=650.6>632.8), using d18:1/12:0 [M+H]^+ (m/z=482.5>464.5>264.3) as an internal standard. […]

[15] = skeletal muscle, rats self-administering methamphetamine vs controls
[16] = skeletal muscle, self-administering rats vs controls

CCCC[C@@H](C)[C@@H](OC(=O)C[C@@H](CC(=O)O)C(=O)O)[C@H](C[C@@H](C)C[C@H](O)CCCC[C@@H](O)C[C@H](O)[C@H](C)N)OC(=O)C[C@@H](CC(=O)O)C(=O)O [Fumonisin B1]
expression of SA-β-gal by the cell-permeable ceramide analog C8 ([1]; C8 in presence of L-CS or FB1): neither L-CS nor FB1 blocked
SA-β-gal expression induced by methamphetamine ([1]; inhibitor 50 μM): suppressed

CCCCc1ccc(N=CNO)c(C)c1 [HET-0016]
ceramide formation in D-meth-treated cells ([2]; MEF, inhibitors each at 10 μM): ineffective

N[C@H]1CONC1=O [L-cycloserine]
methamphetamine-induced reduction of food intake ([3]; L-CS treatment): did not alter
meth induced changes in body temperature ([3]; L-CS treatment, listed as L-CS): did not alter
methamphetamine self-administration ([3]; L-CS treatment, listed as L-CS): no effect; also recorded: did not alter
body weight (wasting phenotype) ([3]; methamphetamine self-administering animals treated with L-CS, listed as L-CS): able to rescue the wasting phenotype; also recorded: corrected the abnormalities in body weight
methamphetamine induced increases in ceramide ([2]; primary MEF, inhibitor 30 μM): able to block
methamphetamine induced increases in ceramide ([4]; isolated mitochondria from primary MEF, inhibitor 30 μM): able to block
methamphetamine-induced increase in the transcription of IL-6, TNF-alpha, p21 and p53 ([5]; MEF, co-administration with methamphetamine): blocked
expression of SA-β-gal by the cell-permeable ceramide analog C8 [1]: neither L-CS nor FB1 blocked
amphetamine-induced inflammation and senescence [1]: prevent
SA-β-gal expression induced by methamphetamine ([1]; inhibitor 30 μM): suppressed
methamphetamine-induced increase of ceramide ([6]; methamphetamine in combination with L-CS): block the increase
methamphetamine induced increases in ceramide content ([7]; 8 days self-administration, L-CS i.v. from 4 days into the study (10 then 20 mg/kg before and after sessions)): blocked

CN[C@@H](C)Cc1ccccc1.Cl [L-methamphetamine, L-methamphetamine hydrochloride]
ceramide (d18:1/16:0) content [2]: no such effect

CCCC(C(=O)OCCN(CC)CC)(c1ccccc1)c1ccccc1 [SKF-525A]
ceramide formation in D-meth-treated cells ([2]; MEF, inhibitors each at 10 μM): normalized
release of ROS evoked by methamphetamine [8]: prevented

CN/C(=N/CCSCc1nc[nH]c1C)NC#N [cimetidine]
ceramide formation in D-meth-treated cells [2]: normalized
release of ROS evoked by methamphetamine [8]: prevented

C[C@H](N)Cc1ccccc1 [d-amphetamine]
ceramide (d18:1/16:0) content [2]: modest but statistically significant (p<0.014) increase

CN[C@@H](C)Cc1ccccc1 [methamphetamine, S(+)-methylamphetamine HCl]
CerS activity [9]: increased
CerS activity [10]: increased
ceramide (d18:1/16:0) content [2]: increased ceramide (d18:1/16:0) in a dose-dependent manner
long chain ceramides (d18:1/24:0 and d18:1/24:1) ([4]; methamphetamine 1 mM): mitochondrial specific increase
short chain ceramide (d18:1/16:0) ([4]; methamphetamine 1 mM): increases
mRNA levels of the genes involved de novo ceramide biosynthesis ([5]; MEF treated with methamphetamine): increased
p21 and p53 transcription ([5]; MEF, methamphetamine treatment): increase
number of SA-β-gal positive cells ([1]; 1 mM, 48 h, passage 1 to 4, vs vehicle-treated cells): increased
increase in the number of SA-β-gal positive cells ([1]; 1 mM, 48 h, passage 3, versus non-treated cells): greater than 4 fold
number of SA-β-gal positive cells ([1]; 1 mM, 48 h, passage 5): did not further increase
cell morphology [11]: morphological changes typical of senescent phenotype
number of population doublings [12]: decreased
DNA synthesis, [3H]-thymidine [13]: decreased
striatal levels of various ceramide species ([14]; dorsal striatum, 2×10 mg/kg intraperitoneal): marked increase
changes in ceramide species ([14]; low doses (i.e., non-toxic)): did not induce any changes
ceramide levels in peripheral tissues ([14]; plasma, skeletal muscle, heart, liver and skin, 2×10 mg/kg intraperitoneal): marked increases
d18:1/16:0 ceramide levels ([14]; rat skeletal muscle, intraperitoneal 3, 10, and 20 mg/kg): dose-dependent increase
ceramide content ([6]; acute treatment with methamphetamine alone): increased
increase in ceramide (d18:1/16:0) [7, 15]: 4 fold
increase in dihydroceramide (d18:1/16:0) [7, 15]: 4 fold
levels of dihydrosphingomyelin (d18:1/16:0) [7, 16]: unchanged
levels of sphingomyelin (d18:1/16:0) [7, 16]: unchanged
multiple ceramide species ([7]; various tissues, largest increase in skeletal muscle, heart and liver, methamphetamine-exposed rats vs controls): substantially increased

C=C[C@H]1C[N@@]2CC[C@H]1C[C@@H]2[C@@H](O)c1ccnc2ccc(OC)cc12 [quinidine]
ceramide formation in D-meth-treated cells ([2]; MEF, inhibitors each at 10 μM): normalized
release of ROS evoked by methamphetamine [8]: prevented

O=C1CCC(N2C(=O)c3ccccc3C2=O)C(=O)N1 (stereo not drawn) [thalidomide]
amphetamine-induced inflammation and senescence [1]: prevent

TNF-α
cellular ceramide content ([2]; MEF, TNF-α treatment activating NF-κB): mimic the effects of methamphetamine
